The target in this assay is T1, KCNQ 2/3 channels (HEK293 cells stably expressing human KCNQ2 and KCNQ3 subunits) (Homo sapiens, UniProt O43525+O43526).
T1 construct: expressed in transfected cells; host or cells: HEK293
Put plainly: KCNQ2/3 channel activation, thallium flux FLIPR assay with BTC-AM dye. The following applies: for Emax: HEK293, maximum response relative to the response produced by 10 μM retigabine (set at 100%), read-out: Max. %; for EC50: HEK293 cells expressing human KCNQ2 and KCNQ3, thallium flux, FLIPR. The class given is cell-based. Here is the method:
The following example describes the assay that can be used to identify compounds that activate KCNQ 2/3 channels.
HEK293 cells stably expressing human KCNQ2 and KCNQ3 subunits were seeded in 96-well, black-walled, clear-bottomed, poly-D-lysine coated plates (BD Biosciences, Bedford, Mass.) at a density of 1×10^5 cells per well 24 hours before the assay. On the assay day, BTC-AM dye (Invitrogen, Carlsbad, Calif.) was loaded into the cells by replacing the cell culture medium with 55 μL/well of 3 μg/mL dye in DPBS. Dye loading was allowed to proceed for 2 hours at room temperature and then cells were washed twice with 50 μL/well of assay buffer (in mM: 10 HEPES pH 7.3, 5 glucose, 140 Na-gluconate, 2.5 K-gluconate, 3.6 Ca-gluconate, 2 MgSO4, 0.1 Ouabain) to remove unloaded dye. Cells were incubated in 50 μL of assay buffer before loading onto a FLIPR system (Molecular Devices, Sunnyvale, Calif.). Various concentrations of compounds to be assayed were added to the cells in 50 μL of assay buffer and incubated for 4 minutes. The fluorescence signal was initiated by adding 100 μL of assay buffer containing 6 mM TlNO3 and 10 mM K2SO4. Fluors were excited using the 488-nm line of an argon laser and emission was filtered using a 540±30 nm bandpass filter. Fluorescent signals were recorded for 3 minutes. Sums of the responses over basal responses were plotted versus concentrations of test compounds to obtain an EC50 value. The maximum response for each test compound was determined relative to the response produced by 10 μM retigabine. The maximum response of retigabine at 10 μM was set at 100%.

For the compound `CC(C)c1nn(NC(=O)Cc2cc(F)cc(F)c2)c(=O)c2ccccc12` [Example 5, 2-(3,5-difluorophenyl)-N-(4-isopropyl-1-oxophthalazin-2(1H)-yl)acetamide], the Emax was 136% and the EC50 (in general, the concentration giving half of the maximal effect) fell in the range of 100 to 500 nM.

With `CC(C)c1nn(NC(=O)CC23CC4CC(CC(C4)C2)C3)c(=O)c2ccccc12` [Example 6, 2-(1-adamantyl)-N-(4-isopropyl-1-oxophthalazin-2(1H)-yl)acetamide], the Emax stood at 200% and the EC50 was below 100 nM.

`O=C(CC12CC3CC(CC(C3)C1)C2)Nn1nc(-c2ccccc2)c2cccnc2c1=O` [Example 7, 2-(1-adamantyl)-N-(8-oxo-5-phenylpyrido[2,3-d]pyridazin-7(8H)-yl)acetamide]: the Emax was 136% and the half-maximal effective concentration (EC50) was in the range of 1000 to 10000 nM.

Take `CC(C)c1nn(NC(=O)CC23CC4CC(CC(C4)C2)C3)c(=O)c2c1C1CCC2CC1` [Example 8, 2-(1-adamantyl)-N-(4-isopropyl-1-oxo-5,6,7,8-tetrahydro-5,8-ethanophthalazin-2(1H)-yl)acetamide]: the Emax is 79% and the EC50 was in the range of 1000 to 10000 nM.

For the compound `O=C(CC12CC3CC(CC(C3)C1)C2)Nn1nc(-c2ccccc2)c2sccc2c1=O` [Example 9, 2-(1-adamantyl)-N-(4-oxo-7-phenylthieno[2,3-d]pyridazin-5(4H)-yl)acetamide], the Emax amounted to 241% and the half-maximal effective concentration (EC50) lay in the range of 500 to 1000 nM.

`O=C(Cc1cc(F)cc(F)c1)Nn1nc(-c2ccccc2)c2sccc2c1=O` [Example 10, 2-(3,5-difluorophenyl)-N-(4-oxo-7-phenylthieno[2,3-d]pyridazin-5(4H)-yl)acetamide]: the Emax worked out at 179% and the EC50 lay in the range of 1000 to 10000 nM.

With `O=C(Cc1cc(F)cc(F)c1)Nn1nc(C(F)(F)F)c2ccccc2c1=O` [Example 11, 2-(3,5-difluorophenyl)-N-[1-oxo-4-(trifluoromethyl)phthalazin-2(1H)-yl]acetamide], the Emax came to 77% and the EC50 is 100 to 500 nM.

Take `O=C(CC12CC3CC(CC(C3)C1)C2)Nn1nc(C(F)(F)F)c2ccccc2c1=O` [Example 12, 2-(1-adamantyl)-N-[1-oxo-4-(trifluoromethyl)phthalazin-2(1H)-yl]acetamide]: the Emax came out at 169% and the EC50 was in the range of 100 to 500 nM.

On to `O=C(Cc1ccc(Cl)cc1)Nn1nc(C(F)(F)F)c2ccccc2c1=O` [Example 13, 2-(4-chlorophenyl)-N-[1-oxo-4-(trifluoromethyl)phthalazin-2(1H)-yl]acetamide], for which the Emax is 47% and the EC50 is 100 to 500 nM.

With `O=C(Cc1ccc(F)cc1)Nn1nc(-c2ccccc2)c2c(F)ccc(F)c2c1=O` [Example 14, N-(5,8-difluoro-1-oxo-4-phenylphthalazin-2(1H)-yl)-2-(4-fluorophenyl)acetamide], the Emax worked out at 171% and the EC50 was 100 to 500 nM.

As for `O=C(CC12CC3CC(CC(C3)C1)C2)Nn1nc(-c2ccccc2)c2c(F)ccc(F)c2c1=O` [Example 15, 2-(1-adamantyl)-N-(5,8-difluoro-1-oxo-4-phenylphthalazin-2(1H)-yl)acetamide], the Emax worked out at 140% and the EC50 was below 100 nM.

For the compound `O=C(Cc1ccc(Cl)cc1)Nn1nc(-c2ccccc2)c2c(F)ccc(F)c2c1=O` [Example 16, 2-(4-chlorophenyl)-N-(5,8-difluoro-1-oxo-4-phenylphthalazin-2(1H)-yl)acetamide], the Emax was found to be 175% and the concentration for a half-maximal effect (EC50) was in the range of 100 to 500 nM.

With `O=C(Cc1cc(F)cc(F)c1)Nn1nc(-c2ccccc2)c2ccccc2c1=O` [Example 18, 2-(3,5-difluorophenyl)-N-(1-oxo-4-phenylphthalazin-2(1H)-yl)acetamide], the Emax is 189% and the half-maximal effective concentration (EC50) lay within 100 to 500 nM.

Turning to `O=C(Cc1cc(F)cc(F)c1)Nn1nc(Cl)c2ccccc2c1=O` [Example 19, N-(4-chloro-1-oxophthalazin-2(1H)-yl)-2-(3,5-difluorophenyl)acetamide], the Emax stood at 45% and the 50% effective concentration (EC50) was in the range of 1000 to 10000 nM.

For `O=C(CC12CC3CC(CC(C3)C1)C2)Nn1nc(Cl)c2ccccc2c1=O` [Example 20, 2-(1-adamantyl)-N-(4-chloro-1-oxophthalazin-2(1H)-yl)acetamide], the Emax came to 123% and the EC50 fell in the range of 100 to 500 nM.

In the case of `O=C(Cc1ccc(Cl)cc1)Nn1nc(Cl)c2ccccc2c1=O` [Example 21, N-(4-chloro-1-oxophthalazin-2(1H)-yl)-2-(4-chlorophenyl)acetamide], the Emax was 82% and the EC50 fell in the range of 1000 to 10000 nM.

With `O=C(Cc1ccc(Cl)cc1)Nn1nc(C2CC2)c2ccccc2c1=O` [Example 22, 2-(4-chlorophenyl)-N-(4-cyclopropyl-1-oxophthalazin-2(1H)-yl)acetamide], the Emax turned out to be 63% and the EC50 lay in the range of 1000 to 10000 nM.

Take `O=C(Cc1cc(F)cc(F)c1)Nn1nc(C2CC2)c2ccccc2c1=O` [Example 23, N-(4-cyclopropyl-1-oxophthalazin-2(1H)-yl)-2-(3,5-difluorophenyl)acetamide]: the Emax was determined as 156% and the EC50 was in the range of 500 to 1000 nM.

With `O=C(CC12CC3CC(CC(C3)C1)C2)Nn1nc(C2CC2)c2ccccc2c1=O` [Example 24, 2-(1-adamantyl)-N-(4-cyclopropyl-1-oxophthalazin-2(1H)-yl)acetamide], the Emax came to 235% and the EC50 was below 100 nM.

With `O=C(Cc1cccc(F)c1F)Nn1nc(-c2ccccc2)c2ccccc2c1=O` [Example 25, 2-(2,3-difluorophenyl)-N-(1-oxo-4-phenylphthalazin-2(1H)-yl)acetamide], the Emax worked out at 139% and the EC50 was 1000 to 10000 nM.

As to `O=C(Cc1ccc(F)cc1)Nn1nc(-c2ccccc2)c2ccccc2c1=O` [Example 26, 2-(4-fluorophenyl)-N-(1-oxo-4-phenylphthalazin-2(1H)-yl)acetamide], the Emax stood at 157% and the EC50 was in the range of 100 to 500 nM.

As for `O=C(Cc1cc(F)ccc1F)Nn1nc(-c2ccccc2)c2ccccc2c1=O` [Example 27, 2-(2,5-difluorophenyl)-N-(1-oxo-4-phenylphthalazin-2(1H)-yl)acetamide], the Emax was 92% and the EC50 was 500 to 1000 nM.

Take `Cc1nn(NC(=O)Cc2ccc(Cl)cc2)c(=O)c2ccccc12` [Example 28, 2-(4-chlorophenyl)-N-(4-methyl-1-oxophthalazin-2(1H)-yl)acetamide]: the Emax worked out at 121% and the EC50 fell in the range of 1000 to 10000 nM.

As for `O=C(CC12CC3CC(CC(C3)C1)C2)Nn1nc(-c2ccccc2)c2ccsc2c1=O` [Example 29, 2-(1-adamantyl)-N-(7-oxo-4-phenylthieno[2,3-d]pyridazin-6(7H)-yl)acetamide], the Emax was 173% and the EC50 lay in the range of 100 to 500 nM.

With `CC1(C)[C@H]2CC[C@@H](CC(=O)Nn3nc(-c4ccccc4)c4ccsc4c3=O)[C@@H]1C2` [Example 30, 2-[(1S,2S,5S)-6,6-dimethylbicyclo[3.1.1]hept-2-yl]-N-(7-oxo-4-phenylthieno[2,3-d]pyridazin-6(7H)-yl)acetamide], the Emax is 94% and the EC50 lay within 1000 to 10000 nM.

For `O=C(Cc1ccc(Cl)cc1)Nn1nc(-c2ccccc2)c2ccsc2c1=O` [Example 31, 2-(4-chlorophenyl)-N-(7-oxo-4-phenylthieno[2,3-d]pyridazin-6(7H)-yl)acetamide], the Emax is 30% and the EC50 fell in the range of 1000 to 10000 nM.

The record behind these values is patent US8629143B2, “Potassium channel modulators” (AbbVie Inc., priority 2009, dated 2014).
